Experimental data: patent US20080051456A1, “Glycine Reuptake Inhibitors for Treatment of Drug Dependence” (priority 2005, published 2008)
Values joined by “and” are separate entries in the source; they are usually repeats but may differ in a detail not shown here. Identical values can stand only once.

Experiments:
[1] = test system: striatal extracellular glycine levels; details: 6 mg/kg i.p., rat approx. 500 g; stated as expected; cited from earlier work
GlyT2 protein = target: T1, GlyT2 protein (Homo sapiens, UniProt Q9Y345); details: relative to main action on GlyT1; cited from earlier work
T1 sequence (Q9Y345 1-797): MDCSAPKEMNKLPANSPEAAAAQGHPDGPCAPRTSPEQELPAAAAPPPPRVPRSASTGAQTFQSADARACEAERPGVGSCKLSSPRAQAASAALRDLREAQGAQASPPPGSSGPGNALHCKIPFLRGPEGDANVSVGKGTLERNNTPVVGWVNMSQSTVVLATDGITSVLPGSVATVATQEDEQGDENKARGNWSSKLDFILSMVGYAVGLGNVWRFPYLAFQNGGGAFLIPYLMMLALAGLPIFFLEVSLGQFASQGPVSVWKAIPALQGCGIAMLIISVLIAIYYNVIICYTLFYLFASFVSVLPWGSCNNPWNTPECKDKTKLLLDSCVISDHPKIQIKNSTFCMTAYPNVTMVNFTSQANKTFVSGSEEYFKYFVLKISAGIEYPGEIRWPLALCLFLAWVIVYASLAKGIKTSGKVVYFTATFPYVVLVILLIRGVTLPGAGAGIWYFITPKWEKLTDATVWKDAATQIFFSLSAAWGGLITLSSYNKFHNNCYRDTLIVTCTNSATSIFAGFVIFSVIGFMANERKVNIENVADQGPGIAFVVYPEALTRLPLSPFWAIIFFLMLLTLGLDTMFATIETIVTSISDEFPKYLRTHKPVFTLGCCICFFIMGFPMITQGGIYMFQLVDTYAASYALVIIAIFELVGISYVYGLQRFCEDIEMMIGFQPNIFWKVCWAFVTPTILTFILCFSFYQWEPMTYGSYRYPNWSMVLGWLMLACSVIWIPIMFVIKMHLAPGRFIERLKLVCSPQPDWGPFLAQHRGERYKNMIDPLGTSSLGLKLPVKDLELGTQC

[2] = oral administration
[3] = test system: ethanol high preferring male Wistar rats; experiment: Limited access free choice ethanol (6% v/v) / water drinking in ethanol high preferring rats
Method: Male adult Wistar rats weighing 250-300 g (approx. 50 days old) were supplied by Beekay (Stockholm, Sweden). The animals were housed in groups of four at a constant cage temperature (25° C.) and humidity (65° C.). The animals were allowed to adapt for one week to the novel environment before any experiment (Screening for ethanol preference) was performed. They were kept under regular light-dark conditions (light on at 07:00 a.m. and off at 19:00 p.m.) with free access to standard rat feed (Beekay feed) and tap water.
Rats had continuous access to a bottle of ethanol solution in addition to the water bottle. […] The animals were subsequently housed individually in plastic cages. They had continuous access to two bottles containing either tap water or 6% ethanol solution. […] Water and ethanol intake were measured over a 6-7-week period. The amount (g) of ethanol solution consumed, in percent of total fluid intake (g), was used as an index of ethanol preference. Rats were classified as low-(<20% ethanol), medium (20%-60% ethanol), or high-(>60% ethanol) preferring based on their ethanol preference.
Ethanol (AB Svensk sprit) was dissolved (2-4-6% v/v) with regular tap water and presented in regular plastic 300 ml bottles. […] NaCl (0.9%) was used as vehicle.
To adapt to the experimental procedure, approx. 80 days old ethanol high preferring male Wistar rats were limited to drink both ethanol (6% v/v) and water for only three hours/day during one week, so called limited access (limited access) drinking. Thereafter, daily MTHMPNMglycine or vehicle administration started. MTHMPNMglycine or vehicle was injected i.p. and the rats were allowed to rest for approx. 40 min after which they were presented a choice between ethanol and water and allowed to drink for 3 hours. In the first experiment rats were challenged with MTHMPNMglycine (6 mg/kg) or vehicle for two weeks and alcohol and water intake were monitored. The experiment was preceded and ended by a limited access period.
Again the rats were treated with MTHMPNMglycine (6 mg/kg) or vehicle for 13 days. In addition, the rats were thereafter exposed to a two-week period of alcohol deprivation (limited access), during which they were allowed to drink only water 3 hours per day. After the limited access period the rats were again challenged with MTHMPNMglycine or vehicle and re-exposed to ethanol for an additional time-period of 13 days. […] The rats were presented to the water and ethanol (6% v/v) bottles approx. 40 minutes after drug administration.
The ethanol and water consumption data were statistically analysed using Analysis of variance (ANOVA) for repeated measures followed by post hoc analysis by means of Fisher's Protected Least Significant Difference (PLSD) test. Paired t-test was used for dependent comparisons between values obtained at different time-points. All values are expressed as means ±SEM. A probability value (P) less than 0.05 was considered statistically significant.
A new set of male ethanol high-preferring Wistar rats were injected i.p. with either MTHMPNMglycine or vehicle. Approx. 40 minutes after injection all rats were exposed to a free choice between ethanol (6% v/v) and water for 3 hours. First all rats received MTHMPNMglycine (6 mg/kg) or vehicle daily during 13 days.

[4] = 10 mg/kg, dose-finding pilot experiments

For `COc1ccc2c(c1)CC[C@H](CN(C)CC(=O)O)[C@@H]2c1ccccc1` [MTHMPNMglycine], the “increase of striatal extracellular glycine levels” value [1] is given as 50-80% and 50-70%, the “action on the GlyT2 protein” value (GlyT2 protein) is given as “negligible action” and the “oral dose that induced visible behavioral changes” value [2] is given as no less than 13.5 mg/kg. For the same compound, the “total fluid intake vs vehicle” value ([3]; Experiment 1, 6 mg/kg i.p. daily, day 4-14, group effect p=0.0004, groups also differed on day 1-3) was “significantly reduced”, the “ethanol intake vs vehicle” value ([3]; Experiment 1, 6 mg/kg i.p. daily, day 4-14, group effect p=0.0125) was “significantly reduced” and the “ethanol preference vs vehicle” value ([3]; Experiment 1, 6 mg/kg i.p. daily, day 4-14, group effect p=0.1899) was “no group effect”. For the same compound, the “water intake vs vehicle” value ([3]; Experiment 1, 6 mg/kg i.p. daily, day 4-14, group effect p=0.8713) was “no difference”, the “ethanol preference, difference vs vehicle” value ([3]; Experiment 2, 1.5 mg/kg i.p., day 28-29, group effect p=0.2117) was “totally abolished” and the “ethanol intake, difference vs vehicle” value ([3]; Experiment 2, 1.5 mg/kg i.p., day 28-29, group effect p=0.8614) was “totally abolished”. The “ethanol preference vs vehicle” value ([3]; Experiment 2, 3 mg/kg i.p., day 24-27, group effect p=0.1555) was “appeared to decrease the difference between the groups”, the “ethanol intake vs vehicle” value ([3]; Experiment 2, 3 mg/kg i.p., day 24-27, group effect p=0.2973) was “difference between the groups was reduced” and the “treatment time after which the ethanol intake reducing effect was most pronounced” value ([3]; Experiment 2, 6 mg/kg i.p.) was 4 to 6 days. The “water intake vs vehicle” value ([3]; Experiment 2, 6 mg/kg i.p., after alcohol deprivation, day 17-23, group effect p=0.0659) was “tendency to increase their water intake”, the “ethanol preference vs vehicle” value ([3]; Experiment 2, 6 mg/kg i.p., after approx. one week, day 11-16, group effect p<0.0001) was “significant decrease” and the “total fluid intake vs vehicle” value ([3]; Experiment 2, 6 mg/kg i.p., after four days of treatment, day 8-16, group effect p<0.0001) was “significantly lowered”. The “ethanol intake vs vehicle” value ([3]; Experiment 2, 6 mg/kg i.p., after one week of treatment, day 11-17, group effect p=0.0001) was “even more pronounced”, the “ethanol intake vs vehicle” value ([3]; Experiment 2, 6 mg/kg i.p., after two weeks of alcohol deprivation, day 17-23, group effect p=0.0348) was “remained significantly reduced” and the “ethanol preference vs vehicle” value ([3]; Experiment 2, 6 mg/kg i.p., after two weeks of alcohol deprivation, day 17-23, group effect p=0.0572) was “remained reduced, although not significantly”. The “total fluid intake after vs before reintroducing ethanol choice (within group)” value ([3]; Experiment 2, 6 mg/kg i.p., day 14 vs. day 19, paired t-test p<0.0001) was “significantly increased”, the “ethanol intake after vs before alcohol deprivation period (within group)” value ([3]; Experiment 2, 6 mg/kg i.p., day 14 vs. day 19, paired t-test p=0.0135) was “significantly increased” and the “water intake after vs before alcohol deprivation period (within group)” value ([3]; Experiment 2, 6 mg/kg i.p., day 14 vs. day 19, paired t-test p=0.0188) was “significantly increased their water intake”. For the same compound, the “ethanol intake vs vehicle” value ([3]; Experiment 2, 6 mg/kg i.p., first 6 days of treatment, day 4-10, group effect p=0.0008) was “significantly reduced”, the “ethanol preference vs vehicle” value ([3]; Experiment 2, 6 mg/kg i.p., first 6 days, day 4-10, group effect p=0.1300) was “no significant difference” and the “water intake vs vehicle” value ([3]; Experiment 2, 6 mg/kg i.p., first part of the experiment (before alcohol deprivation)) was “not significantly different”. For the same compound, the “total fluid intake vs vehicle” value ([3]; Experiment 2, after the alcohol deprivation (limited access) period) was “no difference”, the “duration of behavioral changes” value [4] was 10 to 15 min and the “incidence of behavioral changes” value [4] was “one out of ten”. For the same compound, the “gross behavior at the doses used in the study” value (1.5-6 mg/kg i.p., rats) was “behaviorally unaffected” and the “mean body weight vs vehicle” value (during the limited access/experimental time) was “significant lowered”.

In the case of `CCCOc1ccc(C2=CC3(CCN(CC(=O)O)CC3)Oc3ccccc32)cc1F` [FPPSBPAA, 4-[3-fluoro-4-propoxyphenyl]-spiro[2H-1-benzopyran-2,4′-piperidine]-1′-acetic acid], the “action on the GlyT2 protein” value (GlyT2 protein) is listed as “negligible action”.
